Laboratory results from a melting point compilation (Tetko et al.; mined from patent text by program, amines drawn as free bases though some values may be those of a salt).

Row | melting point | Compound
1 | 218 to 219 °C | C=CCN1C(C)(C)CC(Oc2nc(OC3CC(C)(C)N(CC=C)C(C)(C)C3)nc(OC3CC(C)(C)N(CC=C)C(C)(C)C3)n2)CC1(C)C
2 | 172 to 173 °C | COc1cc(Nc2c(C#N)cnc3cc(C#CCN4CCN(C)CC4)sc23)c(Cl)cc1Cl
3 | 170 to 172 °C | c1ccc(C2CC(n3ccnc3)c3ccccc3N2)cc1 (configuration not stated)
4 | 85 °C | O=C(Oc1cc(-c2ccccc2)c2ccccc2n1)N1CCCCC1
5 | 100 to 103 °C | C[N+](C)([O-])c1ccc(/C=C/c2c(F)cccc2F)cc1
6 | 121 to 122 °C | COc1ncccc1Cc1cc2cccc(-c3cccc(C(=O)NCCO)c3)c2s1
7 | 206 °C | CCCN1C(=O)/C(=C/c2c[nH]c3ncccc23)N=C1C
8 | 210 °C | COc1cc(C(=O)Nc2ccc3ccc(Cl)nc3n2)cc(OC)c1OC
9 | 147 to 148 °C | COc1ccc(CNC(=O)N2CCN(c3ncnc4cc(OC)c(OC)cc34)CC2)cc1
10 | 128 to 131 °C | CC(C)(C)c1cc(OCCCCCCc2nnn[nH]2)cc(C(C)(C)C)c1O
11 | 177 to 181 °C | O=C(O)C=CC(=O)c1cc(Cl)c(Cl)cc1Cl
12 | 127 to 128 °C | COc1ccc(C(=O)Nc2ccccc2CCC2CCCCN2C)cc1 (configuration not stated)
13 | 260 °C | Cn1cncc1C(O)(c1ccc(Cl)cc1)c1ccc2c(c1)C(c1cccc(Cl)c1)OCC(=O)N2 (configuration not stated)
14 | 245 to 247 °C | COc1ccc(-c2nc(C(=O)c3ccc(F)cc3)c[nH]2)cc1
15 | 240 to 245 °C | O=c1c2c(O)cc(O)cc2ncn1-c1ccc(O)cc1
16 | 140 to 142 °C | Cc1csc(C(O)(c2nc(C)cs2)C(F)(F)F)n1
17 | 179 to 180 °C | COc1cc2c(cc1OC)CCC(C(=O)NO)=C2
18 | 138 to 140 °C | O=C(CO/N=C(\C(=O)O)c1ccco1)NOC(c1ccccc1)c1ccccc1
19 | 147 to 148 °C | CON=Cc1ccc2c(c1)ncn2-c1cccc(-c2ccoc2)c1
20 | 204 to 205 °C | COc1cc2c(cc1[N+](=O)[O-])NC(=O)CN(C(=O)C(F)(F)F)C2
21 | 134 °C | COc1ccc(S(=O)(=O)N(CCCN(C)C)c2ccc(Cl)cc2Cc2c(F)cccc2F)cc1OC
22 | 107 to 110 °C | COc1ccc(Sc2sc(S(N)(=O)=O)cc2C)cc1
23 | 135 to 137 °C | CSc1onc(-c2ccccc2)c1-c1ccc(S(N)(=O)=O)cc1
24 | 156 °C | COCC(=O)N[C@H]1CC[C@H](CCN2CCC(c3cccc4c3CCO4)CC2)CC1
25 | 130 to 136 °C | CCc1cc(N(C)Cc2ccc3oc(-c4ccccc4C#N)c(Br)c3c2)n2nccc2n1

Row | melting point | Compound
26 | 130 to 131 °C | O=C(O)CCc1ccc(OCCCCc2cc(-c3ccc(C(F)(F)F)cc3)no2)cc1
27 | 123 to 124 °C | CNCC1Cc2cc(F)cc(-c3ccccc3C)c2O1 (configuration not stated)
28 | > 320 °C | O=C(O)c1ccc(Cc2n[nH]c3c2c(=O)n(-c2ccccc2)c2ncccc32)cc1
29 | 199 to 201 °C | O=C(c1ccccc1Nc1ccc(O)cc1)N1CCCCC1
30 | 83 to 85 °C | CCCCS(=O)(=O)NCC1CCN(C(=O)OCc2ccccc2)CC1
31 | 124 to 125 °C | COc1ccc(CN2C(=O)CC2C(=O)O)c(OC)c1 (configuration not stated)
32 | 159 °C | CC#CCOc1ccc(S(=O)C(C(=O)NO)c2cccc3ccccc23)cc1 (configuration not stated)
33 | 178 to 180 °C | CCOC(=O)C1CN2c3c(cc4ccccc4c3CCC2C)C1=O (configuration not stated)
34 | 173 to 174 °C | CCCc1cc(O)nc(-c2ccncc2)n1
35 | 138 °C | Cc1cc(-c2cc(C(C)(C)C)[nH]n2)c(F)cc1Cl
36 | 119 to 121 °C | COc1ccc(N2CCN(c3c(C)c(C)c4c(c3C)C(C3CCCCC3)C(C)(C)O4)CC2)cc1 (configuration not stated)
37 | 175 to 177 °C | O=C(O)c1cc(S(=O)(=O)NCCc2ccccc2Cl)ccc1Cl
38 | 61 to 62 °C | COCCNCCc1ccc(Nc2ncc3c(n2)-c2ccccc2C(c2ccccc2C(F)(F)F)C3)cc1 (configuration not stated)
39 | 99.8 °C | CCCCOc1nc2ccnn2c2ncccc12
40 | 178 to 180 °C | Nc1cc2c(c(C(=O)O)c1)CCCC2
41 | 100 to 101 °C | CCCCCCCNC(=O)N(C)c1cccc(-c2ccc(CCC(=O)NO)cc2)c1
42 | 140 to 150 °C | CC12CCC(OS(=O)(=O)C(F)(F)F)=CC1=CCC1C2CCC2(C)C(C(=O)O)CCC12 (configuration not stated)
43 | 103 to 104 °C | COC(=O)C(C)=Cc1ccc(O)cc1
44 | 179 to 181 °C | COc1ccc(S(=O)(=O)N2CCc3cccc(-c4cccnc4)c32)cc1
45 | 215 to 217 °C | COc1ccc(Nc2cccc3c2C(=O)N(C2CCC(=O)NC2=O)C3=O)cc1OC (configuration not stated)
46 | 81 to 83 °C | COC(=O)c1cc(I)cn1[Si](C(C)C)(C(C)C)C(C)C
47 | 248 to 249 °C | COC1=C(C(=O)c2ccc(C)cc2)C(c2ccc(C(C)C)cc2)N(c2ccc(C)nn2)C1=O (configuration not stated)
48 | 272 to 276 °C | O=C(O)c1cn(-c2nnc(C(F)(F)F)s2)c2cc(F)c(F)cc2c1=O
49 | 132 to 134 °C | CCOC(=O)c1ccc(-c2nc3ccccc3s2)cc1
50 | 226 to 228 °C | CC(=O)NCC1CN(c2ccc(N3CCN(c4nc5cc(F)ccc5o4)CC3)c(F)c2)C(=O)O1 (configuration not stated)

Row | melting point | Compound
51 | 240 °C | NS(=O)(=O)c1cc2c(s1)SC(CC(=O)O)C(=O)N2 (configuration not stated)
52 | 189 to 190 °C | O=C(O)c1ncsc1-c1ccccc1
53 | 106 to 108 °C | O=S(=O)(NCCN1CCOCC1)C(F)(F)F
54 | 169 to 171 °C | Cc1ccc(C(=O)N[C@@H](COC(C)(C)C)NC(=S)Nc2cccc([N+](=O)[O-])c2)cc1
55 | 144 to 148 °C | COc1ccccc1N1CCN(CCNc2c(OC)cnn(C)c2=O)CC1
56 | 223 to 227 °C | COC(=O)c1c(Cc2ccc(S(=O)(=O)N3CCN(C)CC3)cc2)c(=O)c2ccc(Cl)cc2n1-c1ccccc1
57 | 164 to 166 °C | Fc1ccc(N2CCN(CCCNc3ccc(-n4ccnc4)cc3)CC2)cc1
58 | 292 °C | NS(=O)(=O)c1ccc(-c2cn(-c3nc(-c4ccc(C(F)(F)F)cc4)cc(C(F)(F)F)n3)cn2)cc1
59 | 80 to 85 °C | CC1(CN2CCN(c3cccc4c3OCCO4)CC2)N=C(c2ccccc2)NC1=O (configuration not stated)
60 | 98 to 99 °C | Clc1cc(CC(Cl)(Cl)Cl)cnc1Cl
61 | 102 to 104 °C | O=C(Nc1ccc(-n2nc(C3CC3)cc2C2CC2)cc1)Nc1ccc2ncccc2c1
62 | 165 to 166 °C | O=C(c1cccnc1)N1CC2COc3ccc(Cl)cc3C2=N1 (configuration not stated)
63 | 166 to 167 °C | CN(C)N=Nc1c[nH]c(=O)[nH]c1=O
64 | 78 to 80 °C | O=C1CCCCC1c1cccnc1 (configuration not stated)
65 | 151 to 152 °C | CC(=O)c1cc(CO)c(O)cc1O
66 | 84 to 85 °C | CCc1cnc(N)c2ccccc12
67 | 197 to 199 °C | CCn1ncc2c(NCC3CCCCC3)c3cc(OCC(O)CO)ccc3nc21 (configuration not stated)
68 | 235 to 240 °C | O=C(NCc1ccc(Cl)cc1)c1cnc2c(F)c(Oc3ccc(CO)cc3)c(F)cc2c1O
69 | 253 to 255 °C | Cc1nc2c(N)nc3ccccc3c2n1CC(C)(C)OCCS(C)(=O)=O
70 | 228 to 229 °C | CC(O)Cc1cc2c3ccccc3[nH]c(=O)n2n1 (configuration not stated)
71 | 174 °C | O=[N+]([O-])c1cnc2c(F)c(Cl)c(F)cc2c1
72 | 192 to 194 °C | CNC(=O)C(Cc1ccc(OC)cc1)NC(=O)C(CC(C)C)C(CC(=O)NCC(=O)OC(C)(C)C)SC(C)=O (configuration not stated)
73 | 200 to 202 °C | Cc1c2c(cn1C)CN=C(c1ccccc1Cl)c1cc(Cl)ccc1-2
74 | 113 to 114 °C | CN1CC(CCN2CCN(c3ccc(Cl)cc3)CC2)OC1=O (configuration not stated)
75 | 226 to 227 °C | CC1(c2ccc(N)cc2)C(=O)Nc2cc(Cl)cc(Cl)c2C1=O (configuration not stated)

Row | melting point | Compound
76 | 142 to 143 °C | O=C(O)[C@@H](O)CNC(=O)C(F)(F)F
77 | 161 to 165 °C | Cc1cc(C)nc(N(C=S)c2ccccc2)n1
78 | 89 to 94 °C | COc1ccc2c(c1)C(=O)OC2=O
79 | 156 °C | CS(=O)c1ccc(-c2nn(Cc3ccc(F)cc3F)c(=O)cc2-c2ccc(Cl)cc2)cc1 (configuration not stated)
80 | > 300 °C | O=C(O)c1c2c(nc3ccc(F)cc13)-c1ccc(-c3ccccc3C(F)(F)F)cc1CCC2
81 | > 300 °C | NNC(=O)C1=Nc2cccc3c(=O)[nH]nc(c23)N1
82 | 82 to 87 °C | CC(=O)N1CCC(C(=O)c2cc(F)ccc2F)CC1
83 | 102 to 103 °C | Oc1cccc2c(CCc3ccccc3)ccnc12
84 | 153 to 156 °C | CCOC(=O)c1cc2cccnc2[nH]1
85 | 179 to 181 °C | Nc1ccc(C(=O)c2c(F)cccc2F)c(N)n1
86 | 214 to 216 °C | N#Cc1ccc(S(=O)(=O)Nc2ccc(Br)c3cc[nH]c23)cc1
87 | 45 to 46 °C | CCCCCCCCCCN1CCCN(O)C1=O
88 | 70 to 71 °C | Cc1ccnc2c1C(=O)CC(c1ccco1)C2 (configuration not stated)
89 | 203 °C | CS(=O)(=O)Nc1ccc(C=CC(=O)N2CCc3c([nH]c4ccccc34)C2c2ccc3c(c2)OCO3)cc1 (configuration not stated)
90 | 211 to 213 °C | Oc1ccc(-c2c3ccccc3c(Br)c3sc4ccccc4c23)cc1
91 | 222 to 224 °C | O=c1[nH]cc(C=Cc2cccnc2)c2ccccc12
92 | 193 to 194 °C | CC1(C)CCC[C@H](N2C(=O)c3ccccc3C2=O)C(=O)N1
93 | 139 to 140 °C | CC(=O)OC1CSC(Oc2ccc(C)nc2C)C(OC(C)=O)C1OC(C)=O (configuration not stated)
94 | 65 to 66 °C | CCCCCCCCCCCCC#CC(O)(CCCCC(=O)O)CCCCC(=O)O
95 | 258 °C | CCOC(=O)COc1ccc(OCc2ccccc2)cc1C(Nc1ccc(C(=N)NC(=O)OC(C)(C)C)cc1)C(=O)OCC (racemic)
96 | 98.4 to 100 °C | CNC(=O)n1cnc(C)c1Br
97 | 280 to 282 °C | Oc1nc(Nc2ccc(O)c(Cl)c2)cc(-c2ccccc2)n1
98 | 114 to 115 °C | COc1ccc(CNc2ncc[nH]2)cc1OC1CCCC1

Row | Compound | melting point
99 | O=C(O)CNC1=Nc2ccc(Cl)cc2C(c2ccccc2)=NC1 | 215 to 220 °C
100 | CSC(C)=NOC(=O)N(C)SCCSN(C)C(=O)ON=C(SC)C(=O)N(C)C | 102 to 106 °C
101 | O=C(Nc1ccccc1C(F)(F)F)ONC1=Nc2ccc(Cl)cc2C(c2ccccc2)=NC1 | 190 °C
102 | CC1N=C(c2ccccc2F)c2cc(C#N)ccc2NC1=O (configuration not stated) | 216 °C
